Source: patent US20240293586A1, “RA[…] AND USE THEREOF” (OSAKA UNIVERSITY, priority 2021, published 2024)

Assays:
Type in all cases: in vivo, SCID mice
[1] = test system: human prostate cancer cells (LNCaP); experiment: Therapeutic test in human prostate cancer-transplanted mice (Experimental Example 4); conditions: 0.4 MBq or 1 MBq, n=3; kept for 3 weeks; FIGS. 12 to 14
Description: SCID mice (9 weeks old, male, n=5) were subcutaneously transplanted with human prostate cancer cells (LNCaP, 0.5×10^7 cells/mouse), and then kept for one month. The tumor-transplanted mice were divided into Compound 3, 7 or 8 administration group (0.4 MBq or 1 MBq, n=3) and control group (CTL, n=2 or 3), and kept for 3 weeks thereafter, and changes in tumor size and body weight were measured.

[2] = Blood biochemical tests and histopathological examination after the therapeutic test; conditions: 3 weeks after 0.5 MBq
Description: (§1) The mice in the Compound 3 administration group (0.5 MBq, n=3) and control group (CTL, n=2) of Experimental Example 1 were kept for 3 weeks thereafter, and changes in tumor size were measured. The tumor size was standardized by size at the time of drug administration, and the relative ratio (fold change) to subsequent tumor size was calculated. The tumor size in the control group increased over time, and it increased about seven times after three weeks. […] The mice were dissected and blood biochemical tests were performed.

[3] = test system: human prostate cancer cells (LNCaP); experiment: Biodistribution test in human prostate cancer-transplanted mice or normal mice; conditions: approximately 0.1 MBq, 3 and 24 hours after administration; for accumulation in the tumors (radioactivity distribution % ID, % ID/g): tumor-transplanted mice, FIGS. 8, 10; for accumulation in the kidney (radioactivity distribution % ID, % ID/g): tumor-transplanted or normal mice, FIGS. 7 to 11
Description: SCID mice (9 weeks old, male, n=5) were subcutaneously transplanted with human prostate cancer cells (LNCaP, 0.5×10^7 cells/mouse), and then kept for one month. Compound 3, 4, 7 or 8 (approximately 0.1 MBq) was administered to the tumor-transplanted mice or normal mice, and the mice were dissection under isoflurane inhalation anesthesia at 3 and 24 hours after administration to collect various organs including blood, urine and tumors. The radioactivity distribution (% ID) and radioactivity distribution per 1 g of organ weight (% ID/g) were measured for each organ.

[4] = test system: human prostate cancer cells (LNCaP); experiment: Imaging of human prostate cancer-transplanted mice (planar images, SPECT camera); conditions: FIG. 5; for accumulation at the tumor-transplanted site: 0.43±0.01 MBq via the tail vein
Description: (§2) SCID mice (9 weeks old, male, n=5) were subcutaneously transplanted with human prostate cancer cells (LNCaP, 0.5×10^7 cells/mouse), and then kept for one month. The mice were divided into Compound 3 administration group (n=3) and control group (n=2). For the Compound 3 administration group, Compound 3 (0.43±0.01 MBq) was administered via the tail vein. For the control group, physiological saline was administered. The mice in the Compound 3 administration group (n=3) were anesthetized with isoflurane inhalation at 3 and 24 hours after administration, and the planar images were taken using a SPECT camera (E-cam, Siemens) (matrix size: 256×256, pixel size 1.2×1.2 mm, collimator: LEAP, energy window: 79 keV±20%, image acquisition time 10 min or 20 min).

[5] = test system: human prostate cancer cells (LNCaP); experiment: Therapeutic test in human prostate cancer-transplanted mice with Compound 3 (tumor size); conditions: 0.5 MBq, FIG. 6
Description: as §2, §1

[6] = planar imaging at 3 and 24 hours after administration

O=C(O)CC[C@H](NC(=O)N[C@@H](CCCCNC(=O)[C@@H](Cc1ccc2ccccc2c1)NC(=O)c1ccc(CNC(=O)[C@@H](CCC(=O)O)NC(=O)[C@@H](CCC(=O)O)NC(=O)Cc2ccc([211At])cc2)cc1)C(=O)O)C(=O)O [Compound 3]
change in tumor size versus control group [1]: tumor growth inhibition was observed | histopathological examination of kidneys, salivary glands and thyroid glands [2]: no particular abnormal findings | renal function marker values (blood biochemical tests) versus control group [2]: no significant differences | accumulation in the tumors (radioactivity distribution % ID, % ID/g) [3]: significantly accumulated in the tumors | accumulation in the kidney (radioactivity distribution % ID, % ID/g) [3]: accumulate physiologically in the kidney | accumulation at the tumor-transplanted site ([4]; 3 hours after administration): accumulated at the tumor-transplanted site | accumulation at the tumor-transplanted site ([4]; 24 hours after administration): the accumulation continued | accumulation in the kidneys [4, 6]: physiological accumulation in the kidneys | nonspecific accumulation in other organs [4, 6]: no nonspecific accumulation in other organs was observed | tumor size, relative ratio (fold change) to size at the time of drug administration ([5]; after three weeks, n=3, control increased about seven times): 0.27 times | tumor size change ([5]; immediately after administration): tendency to shrink

O=C(O)CC[C@H](NC(=O)N[C@@H](CCCCNC(=O)[C@@H](Cc1ccc2ccccc2c1)NC(=O)c1ccc(CNC(=O)CCC(=O)NCCCC[C@H](NC(=O)CNC(=O)Cc2ccc([211At])cc2)C(=O)O)cc1)C(=O)O)C(=O)O [Compound 7]
change in tumor size versus control group [1]: tumor growth inhibition was observed | accumulation in the tumors (radioactivity distribution % ID, % ID/g) [3]: significantly accumulated in the tumors | accumulation in the kidney (radioactivity distribution % ID, % ID/g) [3]: accumulate physiologically in the kidney

O=C(O)CC[C@H](NC(=O)N[C@@H](CCCCNC(=O)[C@H](Cc1ccc2ccccc2c1)NC(=O)c1ccc(CNC(=O)[C@H](CCC(=O)O)NC(=O)[C@H](CCC(=O)O)NC(=O)Cc2ccc([211At])cc2)cc1)C(=O)O)C(=O)O [Compound 4]
accumulation in the kidney (radioactivity distribution % ID, % ID/g) [3]: accumulate physiologically in the kidney

O=C(O)CC[C@H](NC(=O)N[C@@H](CCCCNC(=O)[C@@H](Cc1ccc2ccccc2c1)NC(=O)c1ccc(CNC(=O)[C@@H](CCC(=O)O)NC(=O)[C@@H](CCC(=O)O)NC(=O)CCC(=O)NCCCC[C@H](NC(=O)CNC(=O)Cc2ccc([211At])cc2)C(=O)O)cc1)C(=O)O)C(=O)O [Compound 8]
change in tumor size versus control group [1]: tumor growth inhibition was observed | accumulation in the kidney (radioactivity distribution % ID, % ID/g) [3]: accumulate physiologically in the kidney
